Structures are written as SMILES. Structures can show the parent of a compound that is named as a salt.

In this assay the target is T1, recombinant human SYK360-635 (Homo sapiens, UniProt P43405).
T1 construct: made in house
Nature of the assay: Determination of IC50 of Spleen Tyrosine Kinase (SYK) inhibition, 33P ATP filtration assay. It is filed as biochemical. The following applies: SYK aa 360-635 0.5 nM; ATP 20 μM, peptide 5 μM, 0.1% BSA; read-out: SYK_ENZYME_FILTRATION/v1, BSA.
As for `CC(C)(C)NC(=O)c1c[nH]c2ncc(-c3nn(CC(F)(F)F)c4cc(F)ccc34)nc12` [Example I-418, 2-[6-Fluoro-1-(2,2,2-trifluoro-ethyl)-1H-indazol-3-yl]-5H-pyrrolo[2,3-b]pyrazine-7-carboxylic acid tert-butylamide], the IC50 came to 19.9 nM.
Consider `C[C@@H](CO)NC(=O)c1c[nH]c2ncc(-c3n[nH]c4cc(Cl)ccc34)nc12` [Example I-419, 2-(6-Chloro-1H-indazol-3-yl)-5H-pyrrolo[2,3-b]pyrazine-7-carboxylic acid ((S)-2-hydroxy-1-methyl-ethyl)-amide], for which the IC50 was found to be 6.9 nM.
As for `Cn1nc(-c2cnc3[nH]cc(C(=O)NC(C)(C)C)c3n2)c2ccc(C(F)(F)F)cc21` [Example I-420, 2-(1-Methyl-6-trifluoromethyl-1H-indazol-3-yl)-5H-pyrrolo[2,3-b]pyrazine-7 carboxylic acid tert-butylamide], the figure is 33.5 nM; as for `CC(C)(C)NC(=O)c1c[nH]c2ncc(-c3cccc4cn[nH]c34)nc12` [Example I-421, 2-(1H-Indazol-7-yl)-5H-pyrrolo[2,3-b]pyrazine-7-carboxylic acid tert-butylamide], 163 nM.
Take `Cc1ccc2c(-c3cnc4[nH]cc(C(=O)NC5(C#N)CC5)c4n3)nn(C)c2c1` [Example I-424, 2-(1,6-Dimethyl-1H-indazol-3-yl)-5H-pyrrolo[2,3-b]pyrazine-7-carboxylic acid (1-cyano-cyclopropyl)-amide]: the IC50 is 7.7 nM.
On to `Cc1ccc2c(-c3cnc4[nH]cc(C(=O)NC(C)(C)CO)c4n3)nn(CCN(C)C)c2c1` [Example I-426, 2-[1-(2-Dimethylamino-ethyl)-6-methyl-1H-indazol-3-yl]-5H-pyrrolo[2,3-b]pyrazine-7-carboxylic acid (2-hydroxy-1,1-dimethyl-ethyl)-amide], for which the IC50 worked out at 57.4 nM.
Turning to `Cc1ccc2c(-c3cnc4[nH]cc(C(=O)NC(C)(C)C)c4n3)nn(CCCN(C)C)c2c1` [Example I-427, 2-[1-(3-Dimethylamino-propyl)-6-methyl-1H-indazol-3-yl]-5H-pyrrolo[2,3-b]pyrazine-7-carboxylic acid tert-butylamide], the IC50 was 13.3 nM.
`Cc1ccc2c(-c3cnc4[nH]cc(C(=O)NC(C)(C)C5CC5)c4n3)nn(C)c2c1` [Example I-428, 2-(1,6-Dimethyl-1H-indazol-3-yl)-5H-pyrrolo[2,3-b]pyrazine-7-carboxylic acid (1-cyclopropyl-1-methyl-ethyl)-amide]: the IC50 stood at 11.9 nM.
Consider `Cc1ccc2c(-c3cnc4[nH]cc(C(=O)NC5(CO)CC5)c4n3)nn(C)c2c1` [Example I-429, 2-(1,6-Dimethyl-1H-indazol-3-yl)-5H-pyrrolo[2,3-b]pyrazine-7-carboxylic acid (1-hydroxymethyl-cyclopropyl)-amide], for which the IC50 worked out at 12.5 nM.
Under `Cc1ccc2c(-c3cnc4[nH]cc(C(=O)NC(C)(C)CN(C)C)c4n3)nn(C)c2c1` [Example I-430, 2-(1,6-Dimethyl-1H-indazol-3-yl)-5H-pyrrolo[2,3-b]pyrazine-7-carboxylic acid (2-dimethylamino-1,1-dimethyl-ethyl)-amide] stands 1360 nM.
Under `Cc1ccc2c(-c3cnc4[nH]cc(C(=O)NC5(C)CCNC5)c4n3)n[nH]c2c1` (stereo not shown) [Example I-431, 2-(6-Methyl-1H-indazol-3-yl)-5H-pyrrolo[2,3-b]pyrazine-7-carboxylic acid (3-methyl-pyrrolidin-3-yl)-amide] stands 20.7 nM; under `Cc1ccc2c(-c3cnc4[nH]cc(C(=O)NC5(CO)CC5)c4n3)n[nH]c2c1` [Example I-432, 2-(6-Methyl-1H-indazol-3-yl)-5H-pyrrolo[2,3-b]pyrazine-7-carboxylic acid (1-hydroxymethyl-cyclopropyl)-amide], 5.6 nM.
Regarding `Cc1ccc2c(-c3cnc4[nH]cc(C(=O)NC(C)(C)C5CC5)c4n3)n[nH]c2c1` [Example I-433, 2-(6-Methyl-1H-indazol-3-yl)-5H-pyrrolo[2,3-b]pyrazine-7-carboxylic acid (1-cyclopropyl-1-methyl-ethyl)-amide], the IC50 was determined as 8.55 nM.
As for `Cc1ccc2c(-c3cnc4[nH]cc(C(=O)NC(C)(C)CO)c4n3)n[nH]c2c1` [Example I-434, 2-(6-Methyl-1H-indazol-3-yl)-5H-pyrrolo[2,3-b]pyrazine-7-carboxylic acid (2-hydroxy-1,1-dimethyl-ethyl)-amide], the figure is 4.6 nM; as for `Cc1ccc2c(-c3cnc4[nH]cc(C(=O)NC(C)(C)CN)c4n3)n[nH]c2c1` [Example I-435, 2-(6-Methyl-1H-indazol-3-yl)-5H-pyrrolo[2,3-b]pyrazine-7-carboxylic acid (2-amino-1,1-dimethyl-ethyl)-amide], 16.7 nM.
Under `Cc1ccc2c(-c3cnc4[nH]cc(C(=O)NC(C)(C)CN(C)C)c4n3)n[nH]c2c1` [Example I-436, 2-(6-Methyl-1H-indazol-3-yl)-5H-pyrrolo[2,3-b]pyrazine-7-carboxylic acid (2-dimethylamino-1,1-dimethyl-ethyl)-amide] stands 47.9 nM; under `Cc1ccc2c(-c3cnc4[nH]cc(C(=O)NC5(C#N)CC5)c4n3)n[nH]c2c1` [Example I-437, 2-(6-Methyl-1H-indazol-3-yl)-5H-pyrrolo[2,3-b]pyrazine-7-carboxylic acid (1-cyano-cyclopropyl)-amide], 3.95 nM.
Take `Cc1ccc2c(-c3cnc4[nH]cc(C(=O)NC(C)(C)CO)c4n3)nn(CCCN3CCOCC3)c2c1` [Example I-438, 2-[6-Methyl-1-(3-morpholin-4-yl-propyl)-1H-indazol-3-yl]-5H-pyrrolo[2,3-b]pyrazine-7-carboxylic acid (2-hydroxy-1,1-dimethyl-ethyl)-amide]: the IC50 came to 27.4 nM.
Under `Cc1ccc2c(-c3cnc4[nH]cc(C(=O)NC(C)(C)CO)c4n3)nn(CC(=O)N3CCOCC3)c2c1` [Example I-439, 2-[6-Methyl-1-(2-morpholin-4-yl-2-oxo-ethyl)-1H-indazol-3-yl]-5H-pyrrolo[2,3-b]pyrazine-7-carboxylic acid (2-hydroxy-1,1-dimethyl-ethyl)-amide] stands 9.7 nM; under `Cn1nc(-c2cnc3[nH]cc(C(=O)NC4CCCC(NC(=O)OC(C)(C)C)C4)c3n2)c2ccc(Cl)cc21` (stereo not shown) [Example I-442, (3-{[2-(6-Chloro-1-methyl-1H-indazol-3-yl)-5H-pyrrolo[2,3-b]pyrazine-7-carbonyl]-amino}-cyclohexyl)-carbamic acid tert-butyl ester], 879 nM; under `Cn1nc(-c2cnc3[nH]cc(C(=O)NC4(CN)CC4)c3n2)c2ccc(F)cc21` [Example I-443, 2-(6-Fluoro-1-methyl-1H-indazol-3-yl)-5H-pyrrolo[2,3-b]pyrazine-7-carboxylic acid (1-aminomethyl-cyclopropyl)-amide], 656 nM.
In the case of `CC(C)(C)NC(=O)c1c[nH]c2ncc(-c3cccc4ccncc34)nc12` [Example I-444, 2-Isoquinolin-8-yl-5H-pyrrolo[2,3-b]pyrazine-7-carboxylic acid tert-butylamide], the IC50 was found to be 1040 nM.
Take `Cc1ccc2c(-c3cnc4[nH]cc(C(=O)NC(C)(C)CO)c4n3)nn(CCN3CCOCC3)c2c1` [Example I-445, 2-[6-Methyl-1-(2-morpholin-4-yl-ethyl)-1H-indazol-3-yl]-5H-pyrrolo[2,3-b]pyrazine-7-carboxylic acid (2-hydroxy-1,1-dimethyl-ethyl)-amide]: the IC50 was determined as 24.7 nM.
As for `CC(O)CCn1nc(-c2cnc3[nH]cc(C(=O)NC(C)(C)C)c3n2)c2cc(OC(F)F)ccc21` (stereo not shown) [Example I-447, N-tert-Butyl-2-(5-(difluoromethoxy)-1-(3-hydroxybutyl)-1H-indazol-3-yl)-5H-pyrrolo[3,2-b]pyrazine-7-carboxamide], the figure is 2.7 nM; as for `Cn1nc(-c2cnc3[nH]cc(C(=O)NC(C)(C)C)c3n2)c2cc(OCCCC(C)(C)N)ccc21` [Example I-449, 2-(5-(4-Amino-4-methylpentyloxy)-1-methyl-1H-indazol-3-yl)-N-tert-butyl-5H-pyrrolo[3,2-b]pyrazine-7-carboxamide 2,2,2-trifluoroacetate], 46.9 nM.
Turning to `CC(C)NC(=O)c1c[nH]c2ncc(-c3nn(CCCN(C)C)c4ccc(OC(F)F)cc34)nc12` [Example I-450], the IC50 is 13.3 nM.
As for `Cn1ncc2c(-c3cnc4[nH]cc(C(=O)NC(C)(C)C)c4n3)cccc21` [Example I-451, N-tert-Butyl-2-(1-methyl-1H-indazol-4-yl)-5H-pyrrolo[3,2-b]pyrazine-7-carboxamide hydrochloride], the IC50 is 4.8 nM.
For `CN(C)CCCn1nc(-c2cnc3[nH]cc(C(=O)NC4(C)CC4)c3n2)c2cc(OC(F)F)ccc21` [Example I-452, 2-(5-(Difluoromethoxy)-1-(3-(dimethylamino)propyl)-1H-indazol-3-yl)-N-(1-methylcyclopropyl)-5H-pyrrolo[3,2-b]pyrazine-7-carboxamide trifluoroacetate], the IC50 stood at 13.9 nM.
As for `CCNC(=O)c1c[nH]c2ncc(-c3nn(CCCN(C)C)c4ccc(OC(F)F)cc34)nc12` [Example I-453, 2-(5-(Difluoromethoxy)-1-(3-(dimethylamino)propyl)-1H-indazol-3-yl)-N-ethyl-5H-pyrrolo[3,2-b]pyrazine-7-carboxamide trifluoroacetate], the figure is 85.7 nM.
As for `CC(C)(N)CCCn1nc(-c2cnc3[nH]cc(C(=O)NC(C)(C)C)c3n2)c2cc(OC(F)F)ccc21` [Example I-454, 2-(1-(4-Amino-4-methylpentyl)-5-(difluoromethoxy)-1H-indazol-3-yl)-N-tert-butyl-5H-pyrrolo[3,2-b]pyrazine-7-carboxamide trifluoroacetate], the figure is 7.6 nM; as for `CC(C)c1ccc2c(c1)c(-c1cnc3[nH]cc(C(=O)NC(C)(C)C)c3n1)nn2C` [Example I-458, N-tert-Butyl-2-(5-isopropyl-1-methyl-1H-indazol-3-yl)-5H-pyrrolo[2,3-b]pyrazine-7-carboxamide], 15.1 nM.
